Reference: article PMC6406179 (F1000Research, 2018)
Where no end group is shown, it is not given here.

What follows are substances tested against T1, Mannheimia haemolytica leukotoxin (Lkt) (Mannheimia haemolytica, UniProt P16535) (assay: cell-based). Conditions: IC50 (uM) aa 4-17.
With RCPQLLLLAGLLAL [Cattle R4C5] the IC50 was 14.5 ± 0.6 µM.
For QCPQLLLLAGLLAL [Cattle Q4C5], the IC50 was 2.6 ± 0.1 µM.
With QCPQVLLLAGLLGL [Eland Q4C5V8G16] the IC50 was 1.6 ± 0.1 µM.
Substance RCPQVLLLAGLLGL [Eland R4C5V8G16] has an IC50 of 33.3 ± 1.3 µM.

Same assay, conditions: IC50 (uM) aa 5-17
With RPQLLLLAGLLAL [R5] the IC50 was 12.1 ± 0.6 µM.
In the case of RPQLLLLAGLLSL [Water Buffalo R5S16], the IC50 is reported as 13.9 ± 1 µM.
With CPQVLLLAGLLGL [Eland C5V8G16] the IC50 was 0.5 ± 0.1 µM.
RPQLLFLSGLLAL [Sheep R5F10S12] showed an IC50 of 16.1 ± 1 µM.

Same assay, conditions: IC50 (μM)
RPQLLLLAGLLAL [R5] gave an IC50 of 13.7 ± 0.6 µM.
With RPQLLLLAGLLA [(A) 5-16] the IC50 was 18 ± 0.8 µM.
For CPQLLLLAG [(B) 5-13], the IC50 was 27.8 ± 2 µM.
Work on RPQLLLLAGL [(A) 5-14] yielded an IC50 of 23.1 ± 1.3 µM.
Work on MLRQRPQLLLLAGLLALQSVLS [R3R5] yielded an IC50 of 12.7 ± 0.6 µM.
In the case of RPQLLLLAG [(A) 5-13], the IC50 is reported as 75 ± 11.3 µM.
CPQLLLLAGL [(B) 5-14] was tested, and the IC50 was 6.7 ± 0.5 µM.
Work on CPQLLLL [(B) 5-11] yielded an IC50 of 56.2 ± 5 µM.
CPQLLLLA [(B) 5-12] was tested, and the IC50 was 51.5 ± 5.7 µM.
RPQLLLL [(A) 5-11] was tested, and the IC50 was 64.8 ± 7.4 µM.
With CPQLLLLAGLLA [(B) 5-16] the IC50 was 0.6 ± 0.1 µM.
Work on RPQLLLLA [(A) 5-12] yielded an IC50 of 81.8 ± 13.6 µM.
MLRQCPQLLLLAGLLALQSVLS [R3C5] showed an IC50 of 6.8 ± 0.5 µM.
For RPQLLLLAGLL [(A) 5-15], the IC50 was 26.4 ± 1.7 µM.
Work on CPQLLLLAGLLAL [C5] yielded an IC50 of 1.5 ± 0.1 µM.
CPQLLLLAGLL [(B) 5-15] gave an IC50 of 2.8 ± 0.2 µM.

Same assay, conditions: IC50, concentration of peptide needed to block 50% of Lkt-induced cytolysis of BL3 cells
Substance MLRQRPQLLLLAGLLALQSVLS [R3R5] has an IC50 of 17.9 µM.
With MLHQRPQLLLLAGLLALQSVLS [H3R5] the IC50 was 21.6 µM.
MLRQCPQLLLLAGLLALQSVLS [R3C5] gave an IC50 of 5.9 µM.

These substances were tested against T1, Mannheimia haemolytica leukotoxin (Lkt) (assay: not given). Conditions: not given.
In the case of CPQLLLLAGLLAL [C5], the “fold better at blocking Lkt-induced cytotoxicity compared to the 13-mer R5 peptide” value is reported as 8 fold.
